This note sets out measurements from US7759392B2, “Pharmaceutical compounds” (Nicox S.A., priority 1999, dated 2010).

Like-named read-outs stand apart in the source and are kept apart here.

For data set [1], the system named is gastrointestinal mucosa. Conditions: male, Wistar, rat, in vivo, 6 h. The protocol: Gastric lesions induced by administration of the compounds of the invention in the confront of the corresponding drug precursor.
The animals have been sacrificed 6 hours after the administration. The gastrointestinal mucosa has been removed and inspected. The incidence of the gastrointestinal damage has been evaluated as described in experiment F1.

Data set [2] relates to human endothelial cells of the umbilical vein. Description: Experiment F6: apoptosis (DNA fragmentation) induced in endothelial cells by hydrogen peroxide. The class given is cell-based. The following applies: Endothelial cell, products 100 mmoles/l, hydrogen peroxide 200 mmoles/l, 18 hours, read-out: Apoptosis % (respect to the controls treated only with CIP). The text has this: It has been Evaluated the Activity of Some of the Compounds Object of the Present Invention and of the Corresponding Precursor Drugs in Inhibiting DNA Degradation (Apoptosis) in Endothelial Cells Exposed to the Action of Hydrogen Peroxide (HP)
Hydrogen peroxide is a mild oxidant and is considered as an essential mediating agent in pathologies associated with oxidative stress (B. Halliwell, J. Gutteridge “Free Radicals in Biology and Medicine”, page 416, 1993). Therefore the pharmacological activity of compounds to be used under oxidative stress conditions is evaluated through their capability of neutralizing the cytolesive effects of the hydrogen peroxide (B. Halliwell, J. Gutteridge “Free Radicals in Biology and Medicine”, page 416, 1993).
The method described by Herman et Al. (Herman C., Zeiner M. A., Dimmeler S., Arterioscler. Thromb. Vasc. Biol. 17 (12), 3588-82, 1997).
Human endothelial cells of the umbilical vein are prepared according to a standard method. Fresh umbilical veins, just removed, are filled with a solution of collagenase at 0.1% and incubated at 37° C. for 5 minutes.
Subsequently the veins are perfused with medium M 199 (GIBCO, Grand Island, N.Y.) pH 7.4 containing 20% of human serum. The cells are collected from the perfusate by centrifugation at 800 rpm and harvested in culture flasks T-75, pretreated with human fibronectin. […]

Data set [3] concerns gastrointestinal mucosa. The following applies: rat, in vivo. How it is done: The animals (rats) are distributed in the following groups (no. 10 animals for group):
• 1° group: treatment: only carrier (aqueous suspension 1% w/v of carboxymethylcellulose, dose: 5 ml/Kg when the drug is administered by os, or a physiologic solution when parenterally administered, i.e. by subcutaneous, intraperitoneal, intravenous or intermuscular route), • 2° group: treatment: carrier as above defined+NEM, B) Groups Treated with the Drug: • group I: treatment: carrier+drug, • group II: treatment: carrier+drug+NEM.
The administration routes are those known for the drug, and can be the oral or subcutaneous, intraperitoneal, intravenous or intramuscular route.
The animals are sacrificed after 24 hours and then one proceeds to the evaluation of the damage to the gastrointestinal mucosa.
Test 1—experimental model in vivo with N-ethylmaleimide (NEM): study of the gastric tolerability of some drugs screened as precursors of the compounds of the invention.
The animals (rats, weight about 200 g) are distributed in the following groups (No. 10 animals for group):
• 1° group: treatment: only carrier (aqueous suspension 1% w/v of carboxymethylcellulose, dose: 5 ml/Kg when the drug is administered by os, physiologic solution when by parenteral route), • 2° group: treatment: carrier+NEM, B) Groups Administered with Each Drug: • group I: treatment: carrier+drug, • group II: treatment: carrier+drug+NEM.
The drug is administered one hour later, in suspension in the carrier. Animals are sacrificed after 24 hours and evaluation of the damage to the gastrointestinal mucosa is made by counting the number of rats, inside each group, with lesions to the stomach at a visual inspection. The total number of said rats is then divided by the total number of rats of the group and multiplied by 100.

Data set [4] deals with human endothelial cells of the umbilical vein. As to the kind of experiment: Test 2 (CIP): apoptosis (DNA fragmentation) induced by cumene hydroperoxide in endothelial cells. The class given is cell-based. Conditions: drug 10^-4 M; CIP 5 mM. How it is done:
Test 2 (CIP): Protection parameter of endothelial cell against the oxidative stress induced by cumene hydroperoxide (CIP).
Human endothelial cells of the umbilical vein are prepared according to an usual standard procedure. Fresh umbilical veins are filled with a 0.1% by weight collagenase solution and incubated at 37° C. for 5 minutes.
The cells are collected from the perfusate by centrifugation and harvested in culture flasks T-75, pretreated with human fibronectin. The cells are then harvested in the same medium, further added with 10 ng/ml of bovine hypothalamic growth factor. When the cells of the primary cell culture (i.e. that directly obtained from ex-vivo) form a single layer of confluent cells (about 8,000,000 cells/flask), the culture is stopped and the layers washed and trypsinized. The cellular suspensions are transferred into the wells of a cell culture plate having 24 wells, half of which is then additioned with the same culture medium containing the drug at a 10^−4M concentration, and harvested in a thermostat at 37° C. at a constant moisture. Only the cells coming from said first sub-cultures are used for the experiments with cumene hydroperoxide (CIP).
Before starting the test, the cellular culture medium is removed and the cellular layers are carefully washed with a physiologic solution at a temperature of 37° C. The wells of the culture plate are then incubated for one hour with CIP at a 5 mM concentration in the culture medium. […] 5 replicates for each sample are carried out.
Human endothelial cells of the umbilical vein are prepared according to a standard method. Fresh umbilical veins are filled with a collagenase solution 0.1% by weight and incubated at 37° C. for 5 minutes.
The cells are collected from the perfusate by centrifugation at 800 rpm and harvested in culture flasks T-75, pretreated with human fibronectin. Cells are then harvested in the same medium, added with bovine hypothalamic growth factor (100 ng/ml). When the cells of the primary cell culture (the cells directly removed from ex-vivo umbilical vein) form a single layer of confluent cells (about 8,000,000 cells/flask), harvesting is stopped and the layers are washed and trypsinized. The cellular suspensions are transferred into wells of a culture plate having 24 wells, half of said wells being added with the same culture medium containing the drug at a 10^−4M concentration, and harvested in a thermostat at 37° C. at a constant moisture (90%), CO2=5%. When the drug is not soluble in the culture medium, it is formerly dissolved in a small amount of dimethylsulphoxide. The maximum amount of dimethylsulphoxide which can be added to the culture medium is 0.5%. Only the cells coming from these first subcultures are used for the tests with cumene hydroperoxide (CIP).
Before starting the test, the cellular culture medium is removed and the cellular layers are carefully washed with a standard physiologic solution buffered with phosphate 0.1 M pH 7.0, at the temperature of 37° C. The content of each well is then incubated for one hour with a CIP suspension in the culture medium at a 5 mM concentration. Evaluation of the cellular damage (apoptosis) is carried out by determining the percent variation of the DNA fragmentation in the cultures containing the drug+CIP with respect to the controls treated with CIP only. […] The fluorescence of each sample was determined on 5 replicates. Statistic evaluation has been made with t Student test (p<0.01).

In data set [5] the test system is gastrointestinal mucosa. The following applies: rat, in vivo, po.

In turn, `Nc1c2c(nc3ccccc13)CCCC2` [Tacrine, tacrine] returned a Gastropathy % incidence in data set [1] of 60%. In data set [2], the activity at 100000 µM was 8%. Also, in data set [3], the “Gastro-enteropathy (% incidence) without NEM” value is reported as 0% and the “gastrointestinal damages / gastric lesions in rats treated with NEM + drug (in words)” value is on record as “showed gastric lesions”. For the same molecule, the “inhibition of apoptosis induced by CIP (in words, p<0.01)” value in data set [4] was “do not significantly inhibit apoptosis”.

Regarding `CN(CCOC(=O)Cc1ccccc1Nc1c(Cl)cccc1Cl)CCO[N+](=O)[O-]` [Example 14], the Gastropathy % incidence in data set [1] amounted to 0%; in data set [5], 20%.
